Patent US12065442B2, “Tropomyosin receptor kinase (TRK) degradation compounds and methods of use” (Cullgen (Shanghai), Inc., priority 2018, dated 2024)

Each molecule was assayed on KM12 cells (assay: Cell viability assay (CellTiter-Glo) in KM12 cells). Details: Homo sapiens, 72 h; Table 2; KM12 cell viability, CellTiter-Glo, 3 days; read-out: IC50.
Assay type: cell-based

Point of comparison: `O=C1CCC(N2C(=O)c3cccc(NCCC(=O)N4CCN(c5cccc(-c6cnc7ccc(N8CCC[C@@H]8c8cccc(F)c8)nn67)n5)CC4)c3C2=O)C(=O)N1` (stereo partly drawn) [CPD-026, 2-(2,6-Dioxopiperidin-3-yl)-4-((3-(4-(6-(6-((R)-2-(3-fluorophenyl)pyrrolidin-1-yl)imidazo[1,2-b]pyridazin-3-yl)pyridin-2-yl)piperazin-1-yl)-3-oxopropyl)amino)isoindoline-1,3-dione], IC50 82.3 nM. Against it:
- Cc1ncsc1-c1ccc(CNC(=O)[C@@H]2C[C@@H](O)CN2C(=O)[C@@H](NC(=O)CCCCCCCC(=O)N2CCN(c3cccc(-c4cnc5ccc(N6CCC[C@@H]6c6cccc(F)c6)nn45)n3)CC2)C(C)(C)C)cc1 [CPD-018, (2S,4R)-1-((S)-2-(9-(4-(6-(6-((R)-2-(3-Fluorophenyl)pyrrolidin-1-yl)imidazo[1,2-b]pyridazin-3-yl)pyridin-2-yl)piperazin-1-yl)-9-oxononanamido)-3,3-dimethylbutanoyl)-4-hydroxy-N-(4-(4-methylthiazol-5-yl)benzyl)pyrrolidine-2-carboxamide] — 3.1-fold higher, 258 nM
- Cc1ncsc1-c1ccc(CNC(=O)[C@@H]2C[C@@H](O)CN2C(=O)[C@@H](NC(=O)CCOCCOCCOCCOCCC(=O)N2CCN(c3cccc(-c4cnc5ccc(N6CCC[C@@H]6c6cccc(F)c6)nn45)n3)CC2)C(C)(C)C)cc1 [CPD-019, (2S,4R)-1-((S)-2-(tert-butyl)-19-(4-(6-(6-((R)-2-(3-Fluorophenyl)pyrrolidin-1-yl)imidazo[1,2-b]pyridazin-3-yl)pyridin-2-yl)piperazin-1-yl)-4,19-dioxo-7,10,13,16-tetraoxa-3-azanonadecanoyl)-4-hydroxy-N-(4-(4-methylthiazol-5-yl)benzyl)pyrrolidine-2-carboxamide] — 6.1-fold higher, 500 nM
- Cc1ncsc1-c1ccc(CNC(=O)[C@@H]2C[C@@H](O)CN2C(=O)[C@@H](NC(=O)CCOCCOCCC(=O)N2CCN(c3cccc(-c4cnc5ccc(N6CCC[C@@H]6c6cccc(F)c6)nn45)n3)CC2)C(C)(C)C)cc1 [CPD-020, (2S,4R)-1-((S)-2-(3-(2-(3-(4-(6-(6-((R)-2-(3-Fluorophenyl)pyrrolidin-1-yl)imidazo[1,2-b]pyridazin-3-yl)pyridin-2-yl)piperazin-1-yl)-3-oxopropoxy)ethoxy)propanamido)-3,3-dimethylbutanoyl)-4-hydroxy-N-(4-(4-methylthiazol-5-yl)benzyl)pyrrolidine-2-carboxamide] — 2.4-fold higher, 200 nM
- O=C1CCC(N2C(=O)c3cccc(NCCOCCOCCOCCOCCC(=O)N4CCN(c5cccc(-c6cnc7ccc(N8CCC[C@@H]8c8cccc(F)c8)nn67)n5)CC4)c3C2=O)C(=O)N1 (stereo partly drawn) [CPD-021, 2-(2,6-Dioxopiperidin-3-yl)-4-((15-(4-(6-(6-((R)-2-(3-fluorophenyl)pyrrolidin-1-yl)imidazo[1,2-b]pyridazin-3-yl)pyridin-2-yl)piperazin-1-yl)-15-oxo-3,6,9,12-tetraoxapentadecyl)amino)isoindoline-1,3-dione] — 3-fold lower, 27.4 nM
- Cc1ncsc1-c1ccc(CNC(=O)[C@@H]2C[C@@H](O)CN2C(=O)[C@@H](NC(=O)CCCCCCCCCC(=O)N2CCN(c3cccc(-c4cnc5ccc(N6CCC[C@@H]6c6cccc(F)c6)nn45)n3)CC2)C(C)(C)C)cc1 [CPD-022, (2S,4R)-1-((S)-2-(11-(4-(6-(6-((R)-2-(3-Fluorophenyl)pyrrolidin-1-yl)imidazo[1,2-b]pyridazin-3-yl)pyridin-2-yl)piperazin-1-yl)-11-oxoundecanamido)-3,3-dimethylbutanoyl)-4-hydroxy-N-(4-(4-methylthiazol-5-yl)benzyl)pyrrolidine-2-carboxamide] — within 1.5-fold, 100 nM
- O=C1CCC(N2C(=O)c3cccc(NCC(=O)N4CCN(c5cccc(-c6cnc7ccc(N8CCC[C@@H]8c8cccc(F)c8)nn67)n5)CC4)c3C2=O)C(=O)N1 (stereo partly drawn) [CPD-023, 2-(2,6-Dioxopiperidin-3-yl)-4-((2-(4-(6-(6-((R)-2-(3-fluorophenyl)pyrrolidin-1-yl)imidazo[1,2-b]pyridazin-3-yl)pyridin-2-yl)piperazin-1-yl)-2-oxoethyl)amino)isoindoline-1,3-dione] — 5.5-fold lower, 14.9 nM
- O=C1CCC(N2C(=O)c3cccc(NCCCCCCCC(=O)N4CCN(c5cccc(-c6cnc7ccc(N8CCC[C@@H]8c8cccc(F)c8)nn67)n5)CC4)c3C2=O)C(=O)N1 (stereo partly drawn) [CPD-024, 2-(2,6-Dioxopiperidin-3-yl)-4-((8-(4-(6-(6-((R)-2-(3-fluorophenyl)pyrrolidin-1-yl)imidazo[1,2-b]pyridazin-3-yl)pyridin-2-yl)piperazin-1-yl)-8-oxooctyl)amino)isoindoline-1,3-dione] — 8.2-fold lower, 10 nM
- O=C1CCC(N2C(=O)c3cccc(NCCOCCOCCOCCOCCOCCC(=O)N4CCN(c5cccc(-c6cnc7ccc(N8CCC[C@@H]8c8cccc(F)c8)nn67)n5)CC4)c3C2=O)C(=O)N1 (stereo partly drawn) [CPD-025, 2-(2,6-Dioxopiperidin-3-yl)-4-((18-(4-(6-(6-((R)-2-(3-fluorophenyl)pyrrolidin-1-yl)imidazo[1,2-b]pyridazin-3-yl)pyridin-2-yl)piperazin-1-yl)-18-oxo-3,6,9,12,15-pentaoxaoctadecyl)amino)isoindoline-1,3-dione] — 4.9-fold lower, 16.7 nM
- O=C1CCC(N2C(=O)c3cccc(NCCOCCOCCC(=O)N4CCN(c5cccc(-c6cnc7ccc(N8CCC[C@@H]8c8cccc(F)c8)nn67)n5)CC4)c3C2=O)C(=O)N1 (stereo partly drawn) [CPD-028, 2-(2,6-Dioxopiperidin-3-yl)-4-((2-(2-(3-(4-(6-(6-((R)-2-(3-fluorophenyl)pyrrolidin-1-yl)imidazo[1,2-b]pyridazin-3-yl)pyridin-2-yl)piperazin-1-yl)-3-oxopropoxy)ethoxy)ethyl)amino)isoindoline-1,3-dione] — 19-fold lower, 4.3 nM
- Cc1ncsc1-c1ccc(CNC(=O)[C@@H]2C[C@@H](O)CN2C(=O)[C@@H](NC(=O)CCCCCCC(=O)N2CCN(c3cccc(-c4cnc5ccc(N6CCC[C@@H]6c6cccc(F)c6)nn45)n3)CC2)C(C)(C)C)cc1 [CPD-029, (2S,4R)-1-((S)-2-(8-(4-(6-(6-((R)-2-(3-Fluorophenyl)pyrrolidin-1-yl)imidazo[1,2-b]pyridazin-3-yl)pyridin-2-yl)piperazin-1-yl)-8-oxooctanamido)-3,3-dimethylbutanoyl)-4-hydroxy-N-(4-(4-methylthiazol-5-yl)benzyl)pyrrolidine-2-carboxamide] — within 1.5-fold, 74 nM
- O=C1CCC(N2C(=O)c3cccc(NCCOCCC(=O)N4CCN(c5ccc(C(=O)Nc6n[nH]c7ccc(Cc8cc(F)cc(F)c8)cc67)c(NC6CCOCC6)c5)CC4)c3C2=O)C(=O)N1 (stereo not drawn) [CPD-030, N-(5-(3,5-Difluorobenzyl)-1H-indazol-3-yl)-4-(4-(3-(2-((2-(2,6-dioxopiperidin-3-yl)-1,3-dioxoisoindolin-4-yl)amino)ethoxy)propanoyl)piperazin-1-yl)-2-((tetrahydro-2H-pyran-4-yl)amino)benzamide] — 4-fold lower, 20.5 nM
- O=C1CCC(N2C(=O)c3cccc(NCCOCCOCCOCCOCCC(=O)N4CCN(c5ccc(C(=O)Nc6n[nH]c7ccc(Cc8cc(F)cc(F)c8)cc67)c(NC6CCOCC6)c5)CC4)c3C2=O)C(=O)N1 (stereo not drawn) [CPD-031, N-(5-(3,5-Difluorobenzyl)-1H-indazol-3-yl)-4-(4-(1-((2-(2,6-dioxopiperidin-3-yl)-1,3-dioxoisoindolin-4-yl)amino)-3,6,9,12-tetraoxapentadecan-15-oyl)piperazin-1-yl)-2-((tetrahydro-2H-pyran-4-yl)amino)benzamide] — within 1.5-fold, 68.5 nM
- O=C1CCC(N2C(=O)c3cccc(NCCOCCOCCC(=O)N4CCN(c5ccc(C(=O)Nc6n[nH]c7ccc(Cc8cc(F)cc(F)c8)cc67)c(NC6CCOCC6)c5)CC4)c3C2=O)C(=O)N1 (stereo not drawn) [CPD-032, N-(5-(3,5-Difluorobenzyl)-1H-indazol-3-yl)-4-(4-(3-(2-(2-((2-(2,6-dioxopiperidin-3-yl)-1,3-dioxoisoindolin-4-yl)amino)ethoxy)ethoxy)propanoyl)piperazin-1-yl)-2-((tetrahydro-2H-pyran-4-yl)amino)benzamide] — 15-fold lower, 5.4 nM
- Cc1ncsc1-c1ccc(CNC(=O)[C@@H]2C[C@@H](O)CN2C(=O)[C@@H](NC(=O)CCCCCCC(=O)N2CCN(c3ccc(C(=O)Nc4n[nH]c5ccc(Cc6cc(F)cc(F)c6)cc45)c(NC4CCOCC4)c3)CC2)C(C)(C)C)cc1 [CPD-033, (2S,4R)-1-((S)-2-(8-(4-(4-((5-(3,5-difluorobenzyl)-1H-indazol-3-yl)carbamoyl)-3-((tetrahydro-2H-pyran-4-yl)amino)phenyl)piperazin-1-yl)-8-oxooctanamido)-3,3-dimethylbutanoyl)-4-hydroxy-N-(4-(4-methylthiazol-5-yl)benzyl)pyrrolidine-2-carboxamide] — within 1.5-fold, 100 nM
- Cc1ncsc1-c1ccc(CNC(=O)[C@@H]2C[C@@H](O)CN2C(=O)[C@@H](NC(=O)CCCCCCCCC(=O)N2CCN(c3ccc(C(=O)Nc4n[nH]c5ccc(Cc6cc(F)cc(F)c6)cc45)c(NC4CCOCC4)c3)CC2)C(C)(C)C)cc1 [CPD-034, (2S,4R)-1-((S)-2-(10-(4-(4-((5-(3,5-Difluorobenzyl)-1H-indazol-3-yl)carbamoyl)-3-((tetrahydro-2H-pyran-4-yl)amino)phenyl)piperazin-1-yl)-10-oxodecanamido)-3,3-dimethylbutanoyl)-4-hydroxy-N-(4-(4-methylthiazol-5-yl)benzyl)pyrrolidine-2-carboxamide] — 3.6-fold higher, 300 nM
- Cc1ncsc1-c1ccc(CNC(=O)[C@@H]2C[C@@H](O)CN2C(=O)[C@@H](NC(=O)CCCCCCCCCC(=O)N2CCN(c3ccc(C(=O)Nc4n[nH]c5ccc(Cc6cc(F)cc(F)c6)cc45)c(NC4CCOCC4)c3)CC2)C(C)(C)C)cc1 [CPD-035, (2S,4R)-1-((S)-2-(11-(4-(4-((5-(3,5-Difluorobenzyl)-1H-indazol-3-yl)carbamoyl)-3-((tetrahydro-2H-pyran-4-yl)amino)phenyl)piperazin-1-yl)-11-oxoundecanamido)-3,3-dimethylbutanoyl)-4-hydroxy-N-(4-(4-methylthiazol-5-yl)benzyl)pyrrolidine-2-carboxamide] — 3.6-fold higher, 300 nM
- Cc1ncsc1-c1ccc(CNC(=O)[C@@H]2C[C@@H](O)CN2C(=O)[C@@H](NC(=O)CCCC(=O)N2CCN(c3ccc(C(=O)Nc4n[nH]c5ccc(Cc6cc(F)cc(F)c6)cc45)c(NC4CCOCC4)c3)CC2)C(C)(C)C)cc1 [CPD-036, (2S,4R)-1-((S)-2-(5-(4-(4-((5-(3,5-Difluorobenzyl)-1H-indazol-3-yl)carbamoyl)-3-((tetrahydro-2H-pyran-4-yl)amino)phenyl)piperazin-1-yl)-5-oxopentanamido)-3,3-dimethylbutanoyl)-4-hydroxy-N-(4-(4-methylthiazol-5-yl)benzyl)pyrrolidine-2-carboxamide] — 3.6-fold higher, 300 nM
